Several values for one entry are separate records, joined by “and”; a condition that tells them apart may be missing. Equal values may be shown once. Read-outs that look alike come from different tables or passages of the source.
How the values were obtained:
[1] = test system: Clostridium difficile
[2] = test system: Enterococcus faecium EFM.14 (ATCC 6569); assay type: cell-based
Procedure: (§1) Compounds according to Formula I were tested for antimicrobial activity against a panel of organisms. Aerobic organisms, Staphylococcus aureus, Enterococcus faecalis and E. faecium, were tested by broth microdilution according to Clinical and Laboratory Standards Institute (CLSI) document M7-A7 (Clinical and Laboratory Standards Institute. Methods for Dilution Antimicrobial Susceptibility Tests for Bacteria that Grow Aerobically; Approved Standard—Seventh Edition. CLSI document M7-A7 [ISBN 1-56238-587-9]. Clinical and Laboratory Standards Institute, 940 West Valley Road, Suite 1400, Wayne, Pa. 19087-1898 USA, 2006) with modifications as described below. Mueller Hinton Broth (MHBc) was supplemented with 50 mg/L calcium (equivalent to human physiological levels of calcium) and assay plates were incubated 18-20 hours at 37° C. with aeration (200 rpm).
(§2) In all cases the final concentration of dimethyl sulfoxide incubated with cells is less than or equal to 1%. For minimum inhibitory concentration (MIC) calculations, 2-fold dilutions of compounds were added to wells of a microtiter plate containing 5×10^5 bacteria in a final volume of 100 μL of media. Following incubation, (18-20 hours at 37° C. with aeration at 200 rpm) growth was confirmed visually by placing plates over a viewing apparatus (stand with a mirror underneath) and then the optical density (OD600) was measured using a SpectraMax 340PC^384 plate reader. Growth was defined as turbidity that could be detected with the naked eye or achieving minimum OD600of 0.1. MIC values (in μg/mL) were defined as the lowest concentration producing no visible turbidity.

[3] = test system: Enterococcus faecium EFM.384, Daptomycin resistant mutant (14-A); assay type: cell-based; conditions: MHBc with 50 mg/L calcium, 18-20 hours at 37° C.
Procedure: as §1, §2

[4] = test system: Enterococcus faecalis EFS.312, Daptomycin resistant mutant (EFA); assay type: cell-based; conditions: MHBc with 50 mg/L calcium, 18-20 hours at 37° C.
Procedure: as §1, §2

[5] = test system: Staphylococcus aureus SAU.399 (ATCC 43300), Methicillin and Oxacillin Resistant; assay type: cell-based; conditions: ATCC 43300
Procedure: as §1, §2

[6] = test system: Staphylococcus aureus SAU.278, Daptomycin resistant mutant (D10); assay type: cell-based; conditions: MHBc with 50 mg/L calcium, 18-20 hours at 37° C.
Procedure: as §1, §2

[7] = test system: Enterococcus faecalis EFS.201 (ATCC 49452); assay type: cell-based
Procedure: as §1, §2

[8] = MHBc with 50 mg/L calcium, 18-20 hours at 37° C.

Row | SMILES | C. diff MIC90 [1] | Efm14 MIC ([2]; ATCC 6569) | Efm384 MIC [3] | Efs312 MIC [4] | Sa399 MIC [5] | Sa278 MIC [6] | Efs201 MIC ([7]; ATCC 49452) | Efs201 MIC [7, 8] | Efm14 MIC [2, 8]
1 | CCCC1CCC(c2ccc(C(=O)N[C@@H](Cc3c[nH]c4ccccc34)C(=O)N[C@H](CC(N)=O)C(=O)N[C@@H](CC(=O)O)C(=O)N[C@@H]3C(=O)NCC(=O)N[C@@H](CCCN)C(=O)N[C@@H](CC(=O)O)C(=O)N[C@H](C)C(=O)N[C@@H](CC(=O)O)C(=O)NCC(=O)N[C@H](CO)C(=O)N[C@@H]([C@H](C)CC(=O)O)C(=O)N[C@@H](CC(=O)c4ccccc4N)C(=O)O[C@@H]3C)cc2)CC1 (single isomer, unassigned) [53 isomer I] | 1 µg/mL | 0.25 µg/mL | 2 µg/mL and 1 µg/mL | 2 µg/mL | 0.125 µg/mL | 0.25 µg/mL and 0.5 µg/mL |  |  | 
2 | CCCCCCC1CCC(c2ccc(C(=O)N[C@@H](Cc3c[nH]c4ccccc34)C(=O)N[C@H](CC(N)=O)C(=O)N[C@@H](CC(=O)O)C(=O)N[C@@H]3C(=O)NCC(=O)N[C@@H](CCCN)C(=O)N[C@@H](CC(=O)O)C(=O)N[C@H](C)C(=O)N[C@@H](CC(=O)O)C(=O)NCC(=O)N[C@H](CO)C(=O)N[C@@H]([C@H](C)CC(=O)O)C(=O)N[C@@H](CC(=O)c4ccccc4N)C(=O)O[C@@H]3C)cc2)CC1 (single isomer, unassigned) [54 isomer I] | 4 µg/mL |  |  |  |  |  |  |  | 
3 | CCCCCCCC/C=C/CC(=O)N[C@@H](Cc1c[nH]c2ccccc12)C(=O)N[C@H](CC(N)=O)C(=O)N[C@@H](CC(=O)O)C(=O)N[C@@H]1C(=O)NCC(=O)N[C@@H](CCCN)C(=O)N[C@@H](CC(=O)O)C(=O)N[C@H](C)C(=O)N[C@@H](CC(=O)O)C(=O)NCC(=O)N[C@H](CO)C(=O)N[C@@H]([C@H](C)CC(=O)O)C(=O)N[C@@H](CC(=O)c2ccccc2N)C(=O)O[C@@H]1C [Compound 4] |  |  | 8 µg/mL and 4 µg/mL | 32 µg/mL and 16 µg/mL |  |  |  |  | 
4 | CCCCCCC(CCCC)C(=O)N[C@@H](Cc1c[nH]c2ccccc12)C(=O)N[C@H](CC(N)=O)C(=O)N[C@@H](CC(=O)O)C(=O)N[C@@H]1C(=O)NCC(=O)N[C@@H](CCCN)C(=O)N[C@@H](CC(=O)O)C(=O)N[C@H](C)C(=O)N[C@@H](CC(=O)O)C(=O)NCC(=O)N[C@H](CO)C(=O)N[C@@H]([C@H](C)CC(=O)O)C(=O)N[C@@H](CC(=O)c2ccccc2N)C(=O)O[C@@H]1C (some centres unmarked) [Compound 8] | 8 µg/mL |  | 32 µg/mL and >32 µg/mL | >32 µg/mL |  |  |  |  | 
5 | CCCCCCC1CCC(C(=O)N[C@@H](Cc2c[nH]c3ccccc23)C(=O)N[C@H](CC(N)=O)C(=O)N[C@@H](CC(=O)O)C(=O)N[C@@H]2C(=O)NCC(=O)N[C@@H](CCCN)C(=O)N[C@@H](CC(=O)O)C(=O)N[C@H](C)C(=O)N[C@@H](CC(=O)O)C(=O)NCC(=O)N[C@H](CO)C(=O)N[C@@H]([C@H](C)CC(=O)O)C(=O)N[C@@H](CC(=O)c3ccccc3N)C(=O)O[C@@H]2C)CC1 (some centres unmarked) [Compound 18] | 0.5 µg/mL | 2 µg/mL | 8 µg/mL | 32 µg/mL and 16 µg/mL | 1 µg/mL | 4 µg/mL and 2 µg/mL |  |  | 
6 | CCCCCCCC1CCC(C(=O)N[C@@H](Cc2c[nH]c3ccccc23)C(=O)N[C@H](CC(N)=O)C(=O)N[C@@H](CC(=O)O)C(=O)N[C@@H]2C(=O)NCC(=O)N[C@@H](CCCN)C(=O)N[C@@H](CC(=O)O)C(=O)N[C@H](C)C(=O)N[C@@H](CC(=O)O)C(=O)NCC(=O)N[C@H](CO)C(=O)N[C@@H]([C@H](C)CC(=O)O)C(=O)N[C@@H](CC(=O)c3ccccc3N)C(=O)O[C@@H]2C)CC1 (some centres unmarked) [Compound 19] | 0.250 µg/mL |  |  |  |  |  |  |  | 
7 | CC(C)c1ccc(CCCC(=O)N[C@@H](Cc2c[nH]c3ccccc23)C(=O)N[C@H](CC(N)=O)C(=O)N[C@@H](CC(=O)O)C(=O)N[C@@H]2C(=O)NCC(=O)N[C@@H](CCCN)C(=O)N[C@@H](CC(=O)O)C(=O)N[C@H](C)C(=O)N[C@@H](CC(=O)O)C(=O)NCC(=O)N[C@H](CO)C(=O)N[C@@H]([C@H](C)CC(=O)O)C(=O)N[C@@H](CC(=O)c3ccccc3N)C(=O)O[C@@H]2C)cc1 [Compound 30, N-[4-(4-isopropylphenyl)butanoyl]-L-tryptophyl-D-asparaginyl-L-α-aspartyl-L-threonylglycyl-L-ornithyl-L-α-aspartyl-D-alanyl-L-α-aspartylglycyl-D-seryl-(3R)-3-methyl-L-α-glutamyl-(αS)-α,2-diamino-γ-oxobenzenebutanoic acid (13→4)-lactone] | 8 µg/mL |  | >32 µg/mL | >32 µg/mL |  | 32 µg/mL | 8 µg/mL |  | 
8 | CCCCCCc1ccc(C(=O)N[C@@H](Cc2c[nH]c3ccccc23)C(=O)N[C@H](CC(N)=O)C(=O)N[C@@H](CC(=O)O)C(=O)N[C@@H]2C(=O)NCC(=O)N[C@@H](CCCN)C(=O)N[C@@H](CC(=O)O)C(=O)N[C@H](C)C(=O)N[C@@H](CC(=O)O)C(=O)NCC(=O)N[C@H](CO)C(=O)N[C@@H]([C@H](C)CC(=O)O)C(=O)N[C@@H](CC(=O)c3ccccc3N)C(=O)O[C@@H]2C)cc1 [Compound 32] |  |  |  | >32 µg/mL and 32 µg/mL |  |  |  |  | 
9 | C[C@H](CC(=O)O)[C@@H]1NC(=O)[C@@H](CO)NC(=O)CNC(=O)[C@H](CC(=O)O)NC(=O)[C@@H](C)NC(=O)[C@H](CC(=O)O)NC(=O)[C@H](CCCN)NC(=O)CNC(=O)[C@@H](NC(=O)[C@H](CC(=O)O)NC(=O)[C@@H](CC(N)=O)NC(=O)[C@H](Cc2c[nH]c3ccccc23)NC(=O)CCCCCc2ccccc2)[C@@H](C)OC(=O)[C@H](CC(=O)c2ccccc2N)NC1=O [Compound 46] | 16 µg/mL | >32 µg/mL | >32 µg/mL | >32 µg/mL |  | >32 µg/mL | >32 µg/mL |  | 
10 | C[C@H](CC(=O)O)[C@@H]1NC(=O)[C@@H](CO)NC(=O)CNC(=O)[C@H](CC(=O)O)NC(=O)[C@@H](C)NC(=O)[C@H](CC(=O)O)NC(=O)[C@H](CCCN)NC(=O)CNC(=O)[C@@H](NC(=O)[C@H](CC(=O)O)NC(=O)[C@@H](CC(N)=O)NC(=O)[C@H](Cc2c[nH]c3ccccc23)NC(=O)CCCCCCc2ccccc2)[C@@H](C)OC(=O)[C@H](CC(=O)c2ccccc2N)NC1=O [Compound 47] | 8 µg/mL | >32 µg/mL | >32 µg/mL | >32 µg/mL | 16 µg/mL | >32 µg/mL |  |  | 
11 | CCCCCCSc1ccc(-c2csc(C(=O)N[C@@H](Cc3c[nH]c4ccccc34)C(=O)N[C@H](CC(N)=O)C(=O)N[C@@H](CC(=O)O)C(=O)N[C@@H]3C(=O)NCC(=O)N[C@@H](CCCN)C(=O)N[C@@H](CC(=O)O)C(=O)N[C@H](C)C(=O)N[C@@H](CC(=O)O)C(=O)NCC(=O)N[C@H](CO)C(=O)N[C@@H]([C@H](C)CC(=O)O)C(=O)N[C@@H](CC(=O)c4ccccc4N)C(=O)O[C@@H]3C)c2)cc1 [Compound 57] | 8 µg/mL |  |  |  |  | 2 µg/mL and 4 µg/mL |  |  | 
12 | CCCCCCOc1ccc(-c2csc(C(=O)N[C@@H](Cc3c[nH]c4ccccc34)C(=O)N[C@H](CC(N)=O)C(=O)N[C@@H](CC(=O)O)C(=O)N[C@@H]3C(=O)NCC(=O)N[C@@H](CCCN)C(=O)N[C@@H](CC(=O)O)C(=O)N[C@H](C)C(=O)N[C@@H](CC(=O)O)C(=O)NCC(=O)N[C@H](CO)C(=O)N[C@@H]([C@H](C)CC(=O)O)C(=O)N[C@@H](CC(=O)c4ccccc4N)C(=O)O[C@@H]3C)c2)cc1 [Compound 58, N-[4-(4-(hexyloxy)phenyl)thiophene-2-carbonyl]-L-tryptophyl-D-asparaginyl-L-α-aspartyl-L-threonylglycyl-L-ornithyl-L-α-aspartyl-D-alanyl-L-α-aspartylglycyl-D-seryl-(3R)-3-methyl-L-α-glutamyl-(αS)-α,2-diamino-γ-oxobenzenebutanoic acid (13→4)-lactone] | 4 µg/mL |  |  |  |  | 0.5 µg/mL and 1 µg/mL |  |  | 
13 | CCCCCCOc1ccc(-c2ccc(C(=O)N[C@@H](Cc3c[nH]c4ccccc34)C(=O)N[C@H](CC(N)=O)C(=O)N[C@@H](CC(=O)O)C(=O)N[C@@H]3C(=O)NCC(=O)N[C@@H](CCCN)C(=O)N[C@@H](CC(=O)O)C(=O)N[C@H](C)C(=O)N[C@@H](CC(=O)O)C(=O)NCC(=O)N[C@H](CO)C(=O)N[C@@H]([C@H](C)CC(=O)O)C(=O)N[C@@H](CC(=O)c4ccccc4N)C(=O)O[C@@H]3C)cc2)cc1 [Compound 62] | 2 µg/mL |  | 1 µg/mL | 2 µg/mL and 4 µg/mL |  | 0.5 µg/mL |  | 0.25 µg/mL | 0.5 µg/mL

From patent US20150337013A1, “NOVEL ANTIBACTERIAL AGENTS FOR THE TREATMENT OF GRAM POSITIVE INFECTIONS” (priority 2008, published 2015)
